According to patent US8476197B2, “Aminopropenoates as fungicides” (priority 2009, dated 2013):
Marks after values point to notes of the source that are not given here.

Settings: pH 2.7

Row | SMILES | Log P
1 | CCOC(=O)C(C#N)=C(NC(C)c1ccccn1)c1cn(C)cc1C(F)(F)F (racemic) [Compound 270] | 2.92^[a]
2 | CCOC(=O)C(C#N)=C(NC(C)c1nccs1)c1cn(C)cc1C(F)(F)F (racemic) [Compound 271] | 2.97^[a]
3 | CCOC(=O)C(C#N)=C(NC(C)CN1CCCCC1)c1cccnc1Cl (racemic) [Compound 273] | 1.2^[a]
4 | CCOC(=O)C(C#N)=C(NC(C)CN1CCOCC1)c1cccnc1Cl (racemic) [Compound 274] | 1.3^[a]
5 | CCOC(=O)C(C#N)=C(NC(C)c1cscn1)c1cccnc1Cl (racemic) [Compound 275] | 2.4^[a]
6 | CCOC(=O)C(C#N)=C(NC(C)c1ccn(C)n1)c1cccnc1Cl (racemic) [Compound 276] | 2.3^[a]
7 | CCOC(=O)C(C#N)=C(NC(C)c1c(C)nn(C)c1C)c1cccnc1Cl (racemic) [Compound 277] | 2.3^[a]
8 | CCOC(=O)C(C#N)=C(NC(C)Cn1cccn1)c1cccnc1Cl (racemic) [Compound 278] | 2.23^[a]
9 | CCOC(=O)C(C#N)=C(NC(C)c1nc2ccccc2[nH]1)c1cccnc1Cl (racemic) [Compound 279] | 2^[a]
10 | CCOC(=O)C(C#N)=C(NC(C)c1c(C)sc2c1CCCC2)c1cccnc1Cl (racemic) [Compound 280] | 4.4^[a]
11 | CCOC(=O)C(C#N)=C(NC(C)c1ccc(Cl)cc1)c1cc(Cl)sc1Cl (racemic) [Compound 499] | 4.96^[a]
12 | CCOC(=O)C(C#N)=C(NC(C)c1ccc(Cl)cc1)c1cn(C)nc1OC (racemic) [Compound 506] | 3.51^[a]
13 | CCOC(=O)C(C#N)=C(Nc1ccccc1SC)c1cn(C)nc1C(C)F (racemic) [Compound 521] | 3.15^[a]
14 | CCOC(=O)C(C#N)=C(NC(C)c1ccc(Cl)cc1)c1sc(Cl)nc1Cl (racemic) [Compound 526] | 4.54^[a]
15 | CCOC(=O)C(C#N)=C(NC(C)c1ccc(F)cc1)c1ccsc1Br (racemic) [Compound 531] | 3.89^[a]
16 | CCOC(=O)C(C#N)=C(NC(C)CCc1ccccc1)c1ccsc1Br (racemic) [Compound 538] | 4.56^[a]
17 | CCOC(=O)C(C#N)=C(NC(C)c1ccc(Cl)cc1)c1ccncc1Cl (racemic) [Compound 541] | 3.78^[a]
18 | CCOC(=O)C(C#N)=C(NC(C)c1ccc(Cl)cc1)c1cn(C)cc1C(F)(F)F (racemic) [Compound 542] | 4.2^[a]
19 | CCOC(=O)C(C#N)=C(NC(C)c1ccc(Cl)cc1)c1ccnc(Cl)c1Cl (racemic) [Compound 544] | 4.21^[a]
20 | CCOC(=O)C(C#N)=C(NCC(c1ccccc1)C(C)C)c1cccnc1Cl (racemic) [Compound 545] | 4.21^[a]
21 | CCOC(=O)C(C#N)=C(NC(C)c1ccc(Cl)cc1)c1ccncc1F (racemic) [Compound 546] | 3.48^[a]
22 | CCOC(=O)C(C#N)=C(NC1(c2c(F)cccc2F)CC1)c1cn(C)nc1C(C)F (racemic) [Compound 549] | 3.23^[a]
23 | CCOC(=O)C(C#N)=C(NC(C)c1ccc(C(C)C)cc1)c1cn(C)nc1C(F)F (racemic) [Compound 550] | 4.2^[a]
24 | CCOC(=O)C(C#N)=C(NC(C)c1ccc(Cl)cc1Cl)c1cn(C)nc1C(F)F (racemic) [Compound 552] | 3.96^[a]

Row | SMILES | Log P
25 | CCOC(=O)C(C#N)=C(NC(C)c1ccccc1Cl)c1cn(C)nc1C(F)F (racemic) [Compound 553] | 3.46^[a]
26 | CCOC(=O)C(C#N)=C(NC(C)c1cccc(Cl)c1)c1cn(C)nc1C(F)F (racemic) [Compound 554] | 3.55^[a]
27 | CCOC(=O)C(C#N)=C(NC(c1ccc(N(C)C)cc1)C(F)(F)F)c1cn(C)nc1C(F)F (racemic) [Compound 556] | 3.78^[a]
28 | CCOC(=O)C(C#N)=C(NC(CC)c1ccccc1OC)c1cn(C)nc1C(F)F (racemic) [Compound 557] | 3.62^[a]
29 | CCOC(=O)C(C#N)=C(NC(CC)c1cccc(Cl)c1)c1cn(C)nc1C(F)F (racemic) [Compound 558] | 3.87^[a]
30 | CCOC(=O)C(C#N)=C(NC(C)CN(C)C)c1cn(C)nc1C(F)F (racemic) [Compound 578] | 1.13^[a]
31 | CCOC(=O)C(C#N)=C(NCC(C)N)c1cn(C)nc1C(F)F (racemic) [Compound 579] | 0.84^[a]
32 | CCOC(=O)C(C#N)=C(NC(C)CN(C)C)c1ncc(C(F)(F)F)cc1Cl (racemic) [Compound 583] | 1.63^[a]
33 | CCOC(=O)C(C#N)=C(NC(C)CN(C)C)c1c(C)nn(C)c1F (racemic) [Compound 584] | 0.96^[a]
34 | COC(=O)C(C#N)=C(NC(C)CN(C)C)c1cn(C)nc1C(F)F (racemic) [Compound 587] | 0.82^[a]
35 | CCOC(=O)C(C#N)=C(NC(C)CN(C)C)c1nsc(Cl)c1Cl (racemic) [Compound 588] | 1.41^[a]
36 | CCOC(=O)C(C#N)=C(NC(C)CN)c1ncc(C(F)(F)F)cc1Cl (racemic) [Compound 589] | 1.59^[a]
37 | CCOC(=O)C(C#N)=C(NC(C)C(N)=O)c1cn(C)nc1C(F)F (racemic) [Compound 590] | 1.5^[a]
38 | COC(=O)C(C#N)=C(NC(C)CN)c1cn(C)nc1C(F)F (racemic) [Compound 591] | 0.58^[a]
39 | CCOC(=O)C(C#N)=C(NC(C)C(N)=O)c1ncc(C(F)(F)F)cc1Cl (racemic) [Compound 592] | 2.17^[a]
40 | CCOC(=O)C(C#N)=C(NC(C)C(=O)Nc1ccc2ccccc2c1)c1sccc1C(F)(F)F (racemic) [Compound 653] | 4.01^[a]
41 | CCOC(=O)C(C#N)=C(NC(C)COc1c(C)cccc1C)c1sccc1C(F)(F)F (racemic) [Compound 654] | 4.89^[a]
42 | CCOC(=O)C(C#N)=C(NC(C)COC)c1sccc1C(F)(F)F (racemic) [Compound 655] | 3.31^[a]
43 | CCOC(=O)C(C#N)=C(NC(C)C(=O)OCC)c1sccc1C(F)(F)F (racemic) [Compound 656] | 3.44^[a]
44 | CCOC(=O)C(C#N)=C(NC(C(=O)OC)C(C)C)c1sccc1C(F)(F)F (racemic) [Compound 658] | 3.62^[a]
45 | CCOC(=O)C(C#N)=C(NC(C)C(N)=O)c1sccc1C(F)(F)F (racemic) [Compound 660] | 2.13^[a]
46 | COC(=O)C(C#N)=C(NC(C)C(=O)Nc1ccc2ccccc2c1)c1sc(C)nc1C(F)(F)F (racemic) [Compound 661] | 3.69^[a]
47 | COC(=O)C(C#N)=C(NC(C)COc1c(C)cccc1C)c1sc(C)nc1C(F)(F)F (racemic) [Compound 662] | 4.34^[a]
48 | COCC(C)NC(=C(C#N)C(=O)OC)c1sc(C)nc1C(F)(F)F (racemic) [Compound 663] | 2.75^[a]

Same assay, conditions: pH 7.5

Row | SMILES | Log P
49 | C#CCOC(=O)C(C#N)=C(NC(C)c1nccs1)c1cccnc1Cl (racemic) [Compound 267] | 2.26
50 | CC(NC(=C(C#N)C(=O)OC1CCC1)c1cccnc1Cl)c1nccs1 (racemic) [Compound 268] | 2.88
51 | CNC(=O)C(C#N)=C(NC(C)c1nccs1)c1cccnc1Cl (racemic) [Compound 269] | 1.69
52 | COCC(C)NC(=C(C#N)C(=O)OC)c1cccnc1Cl (racemic) [Compound 564] | 2.13
53 | COC(=O)C(C#N)=C(NC(C)CSC)c1cccnc1Cl (racemic) [Compound 576] | 2.38
